Reference: US20120270237A9, “METHODS FOR THE IDENTIFICATION OF KINASE INTERACTING MOLECULES AND FOR THE PURIFICATION OF KINASE PROTEINS” (Cellzone AG, priority 2009, published 2012)

Assays:
[1] = target: T1, IKKe (Homo sapiens, UniProt Q14164); test: Kinobeads competition binding, L-363 cell lysate; set-up: endogenous in cells; host or cells: L-363 (treated with MG132 before harvest); conditions: 10 μM free compound, L-363 lysate
T1 sequence (Q14164 1-716): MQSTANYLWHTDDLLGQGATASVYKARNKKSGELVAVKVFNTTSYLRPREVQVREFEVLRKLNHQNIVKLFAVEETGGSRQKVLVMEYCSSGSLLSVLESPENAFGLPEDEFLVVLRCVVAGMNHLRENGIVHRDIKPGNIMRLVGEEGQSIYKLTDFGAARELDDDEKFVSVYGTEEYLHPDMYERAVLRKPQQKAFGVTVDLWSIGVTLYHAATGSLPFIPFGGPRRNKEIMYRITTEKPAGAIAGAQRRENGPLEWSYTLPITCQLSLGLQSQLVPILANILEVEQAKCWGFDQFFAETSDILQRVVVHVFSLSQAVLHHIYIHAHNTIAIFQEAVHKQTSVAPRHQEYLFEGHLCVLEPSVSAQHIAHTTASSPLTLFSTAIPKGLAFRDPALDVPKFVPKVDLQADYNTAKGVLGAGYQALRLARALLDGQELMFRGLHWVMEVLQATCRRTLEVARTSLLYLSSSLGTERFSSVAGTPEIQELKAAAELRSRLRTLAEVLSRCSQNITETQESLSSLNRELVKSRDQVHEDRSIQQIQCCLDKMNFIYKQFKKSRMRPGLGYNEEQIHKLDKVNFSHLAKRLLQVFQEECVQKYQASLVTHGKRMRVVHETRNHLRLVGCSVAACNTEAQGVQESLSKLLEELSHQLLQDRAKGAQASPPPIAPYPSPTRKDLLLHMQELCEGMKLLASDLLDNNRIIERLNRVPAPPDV
Experimental: To one aliquot of cell lysate 10 μM of the free compound (FIG. 3, CZC31326) was added and allowed to bind to proteins in the lysate. Then the affinity matrix with the immobilized compound was added to capture proteins that were not interacting with the previously added free compound. Beads were separated from the lysate and bead bound proteins were eluted in SDS sample buffer and subsequently separated by SDS-Polyacrylamide gel electrophoresis (FIG. 8). Suitable gel bands were cut out and subjected to in-gel proteolytic digestion with trypsin. The second lysate aliquot was processed identically, however no free compound was added (DMSO solvent control). Peptides originating from samples 1 and 2 were labeled with iTRAQ reagents (iTRAQ 114 and iTRAQ 117) and the combined samples were analyzed with a nano-flow liquid chromatography system coupled online to a tandem mass spectrometer (LC-MS/MS) experiment followed by iTRAQ reporter ion quantification in the MS/MS spectra as described in Example 2.
For this experiment the human plasma cell leukaemia line L-363 was used (German Collection of Microorganisms and Cell Cultures, DSMZ number ACC49, Braunschweig, Germany). Cells were treated for three hours with 20 μM of the proteasome inhibitor MG132 (Z-Leu-Leu-Leu-al, Sigma C2211) prior to cell harvesting.

[2] = target: IRAK1 (Homo sapiens, UniProt P51617); test: Competition binding assay in HL60 cell lysate, antibody detection; set-up: endogenous in cells; host or cells: HL60; conditions: dose response curve, anti-IRAK1 antibody
Sequence of IRAK1 (P51617 whole entry): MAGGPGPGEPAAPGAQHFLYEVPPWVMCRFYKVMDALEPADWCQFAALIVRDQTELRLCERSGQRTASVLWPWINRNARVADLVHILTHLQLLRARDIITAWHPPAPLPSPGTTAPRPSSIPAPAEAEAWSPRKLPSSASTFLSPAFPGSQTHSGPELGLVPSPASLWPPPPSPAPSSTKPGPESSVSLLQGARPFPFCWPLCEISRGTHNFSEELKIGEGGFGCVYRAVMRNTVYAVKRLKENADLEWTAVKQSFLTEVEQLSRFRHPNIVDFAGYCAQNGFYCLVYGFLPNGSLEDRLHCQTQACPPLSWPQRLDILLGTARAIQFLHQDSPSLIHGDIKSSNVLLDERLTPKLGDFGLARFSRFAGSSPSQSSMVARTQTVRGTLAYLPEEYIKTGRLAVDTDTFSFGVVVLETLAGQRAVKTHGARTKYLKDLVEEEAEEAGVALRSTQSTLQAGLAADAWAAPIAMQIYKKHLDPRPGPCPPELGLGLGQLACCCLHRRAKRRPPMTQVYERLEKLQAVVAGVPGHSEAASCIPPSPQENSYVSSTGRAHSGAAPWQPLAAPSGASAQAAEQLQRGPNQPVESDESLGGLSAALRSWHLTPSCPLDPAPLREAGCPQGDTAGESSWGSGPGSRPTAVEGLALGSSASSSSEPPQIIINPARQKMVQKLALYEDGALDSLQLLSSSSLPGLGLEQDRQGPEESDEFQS
Experimental: The experiment was performed as described in example 7. The test compound (or DMSO as solvent control) and diluted cell lysate were added to the affinity matrix and incubated for two hours at 4° C. After washing, captured proteins were eluted with SDS-containing sample buffer. After spotting of eluate samples onto Nitrocellulose membranes IRAK1 was detected with an anti-IRAK1 antibody and IRAK4 with anti-IRAK4 antibody followed by incubation with a secondary fluorescently labeled detection antibody.
Various concentrations of test compounds were added to HL60 lysate samples and allowed to bind to the proteins contained in the lysate sample. At the same time the affinity matrix with the immobilized compound (FIG. 3, CZC31326) was added as well in order to capture proteins not bound to the test compound. After the incubation time the beads with captured proteins were separated from the lysate. Bound proteins were then eluted and the presence of IRAK1 and IRAK4 was detected and quantitavely determined using specific antibodies and the Odyssey Infrared Detection system. […]
The kinases in the eluates were detected and quantified by spotting on Nitrocellulose membranes and using a first antibody directed against the kinase of interest and a fluorescently labeled secondary antibody (anti-mouse or anti-rabbit IRDye™ antibodies from Rockland). […]

inhibition at 10 µM [1]: 89.4% | IC50 [2]: 150 nM
SMILES: CS(=O)(=O)Nc1ccccc1Nc1nc(Nc2cccc(OCCN)c2)ncc1Cl [CZC31326, N-(2-(2-(3-(2-aminoethoxy)phenylamino)-5-chloropyrimidin-4-ylamino)phenyl)methanesulfonamide]
